Counter-ions that a name gives are not always drawn. Like-named read-outs stand apart in the source and are kept apart here.
How the values were obtained:
[1] = acute toxicity test in mice by intravenous administration; conditions: mouse, in vivo
[2] = biological target: T1, elastase from human neutrophil (Homo sapiens, UniProt P08246); experiment: Inhibitory effect on elastase (spectrophotometric method, substrate Suc-Ala-Pro-Ala-pNA); type: biochemical; conditions: for IC50: pH 8.0, 37° C., 30 minutes
T1 construct: using elastase from human neutrophil; from tissue; host or cells: human neutrophil
T1 sequence (P08246 30-247 limits assumed): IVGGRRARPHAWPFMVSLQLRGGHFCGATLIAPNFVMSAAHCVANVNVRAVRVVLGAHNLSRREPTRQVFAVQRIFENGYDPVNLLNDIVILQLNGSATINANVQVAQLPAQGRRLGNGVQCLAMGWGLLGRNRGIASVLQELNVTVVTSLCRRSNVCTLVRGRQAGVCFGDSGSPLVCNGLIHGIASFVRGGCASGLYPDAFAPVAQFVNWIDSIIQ
Method: The test was carried out by the slight modification of the method of Bieth et al [see Biochem. Med., 75, 350 (1974)] using elastase from human neutrophil.
The reaction mixture consisted of 1 mM Suc-Ala-Pro-Ala-pNA (dissolving in N-methylpyrrolidone to the concentration of 100 mM, and then adding 1/100 amount of the solution to the reaction mixture.), 0.1 M buffer solution of tris-hydrochloric acid (pH 8.0), 0.2 M sodium chloride aqueous solution, the sample solution of various concentrations and enzyme solution in a final volume of 1.0 ml was incubated at 37° C. for 30 minutes.
The reaction was stopped by the addition of 100 μl of 50% acetic acid into the reaction mixture, and then p-nitro anilide released was measured on absorbance of 405 nm.
Inhibition percentage of the test compounds was caliculated by the following equation: [formula]

[3] = Y represents an oxygen atom, read-out: Inhibitory Effect on Elastase, IC50
[4] = Y represents a sulfur atom, read-out: Elastase Inhibitory Effect, IC50
[5] = at 50 μg/ml, Y represents a sulfur atom, read-out: Elastase Inhibitory Effect, Inhibition %

| IC50 [2, 3] [µM] | IC50 [2, 4] [µM] | inhibition at 50 µg/mL [2, 5] [%] | SMILES | other results |
| --- | --- | --- | --- | --- |
|  |  |  | CCN(CC)S(=O)(=O)c1ccc(SC(=O)c2ccc(NC(=N)N)cc2)cc1Cl | LD50 [1]: 50 to 150 mg/kg |
|  |  |  | CCS(=O)(=O)Oc1cc(Cl)cc(SC(=O)c2ccc(NC(=N)N)cc2)c1 | LD50 [1]: 50 to 150 mg/kg |
|  |  |  | N=C(N)Nc1ccc(C(=O)Sc2cc(O)cc(Cl)c2)cc1 [3-chloro-5-hydroxy (Y = sulfur atom)] | LD50 [1]: 50 to 150 mg/kg |
|  |  |  | N=C(N)Nc1ccc(C(=O)Oc2cccc(NC(=N)N)c2)cc1 [Example 116] | inhibition at 100 µM ([2]; Y represents an oxygen atom): 20% |
| > 100 |  |  | N=C(N)Nc1ccc(OC(=O)c2ccc(NC(=N)N)cc2)cc1 [Example 117] |  |
| 47 |  |  | N=C(N)Nc1ccc(C(=O)Oc2cc(NC(=N)N)ccc2Cl)cc1 [Example 118] |  |
| 4.7 |  |  | N=C(N)Nc1ccc(C(=O)Oc2cc(Cl)cc(OCc3ccccc3)c2)cc1 [Example 119] |  |
| 6 |  |  | N=C(N)Nc1ccc(SCc2cc(Cl)cc(OC(=O)c3ccc(NC(=N)N)cc3)c2)cc1 [Example 120] |  |
| 1.1 |  |  | N=C(N)Nc1ccc(C(=O)Oc2cc(Cl)cc(COc3cccnc3)c2)cc1 [Example 121] |  |
| 12 |  |  | COc1cc(OC(=O)c2ccc(NC(=N)N)cc2)cc(C(=O)N2CCS(=O)(=O)C2)c1 [Example 122] |  |
| 3.1 |  |  | N=C(N)Nc1ccc(C(=O)Oc2cc(Cl)cc(C(=O)N3CCS(=O)(=O)C3)c2)cc1 [Example 123] |  |
|  | 20 | 76.3 | Cc1ccccc1SC(=O)c1ccc(NC(=N)N)cc1 [Example 125] |  |
|  | 5 | 89.7 | Cc1cccc(SC(=O)c2ccc(NC(=N)N)cc2)c1 [Example 126] |  |
|  |  | 29.3 | Cc1ccc(SC(=O)c2ccc(NC(=N)N)cc2)cc1 [Example 127] |  |
|  | 21 | 79.8 | COc1ccccc1SC(=O)c1ccc(NC(=N)N)cc1 [Example 128] |  |
|  | 6.4 | 89.2 | COc1cccc(SC(=O)c2ccc(NC(=N)N)cc2)c1 [Example 129] |  |
|  |  | 48.2 | COc1ccc(SC(=O)c2ccc(NC(=N)N)cc2)cc1 [Example 130] |  |
|  | 21 | 83 | N=C(N)Nc1ccc(C(=O)Sc2ccc(F)cc2)cc1 [Example 131] |  |
|  | 1.8 | 93 | N=C(N)Nc1ccc(C(=O)Sc2ccccc2Cl)cc1 [Example 132] |  |

| IC50 [2, 3] [µM] | IC50 [2, 4] [µM] | inhibition at 50 µg/mL [2, 5] [%] | SMILES | other results |
| --- | --- | --- | --- | --- |
|  | 0.3 | 81.2 | N=C(N)Nc1ccc(C(=O)Sc2cccc(Cl)c2)cc1 [Example 133] |  |
|  |  | 69.5 | N=C(N)Nc1ccc(C(=O)Sc2ccc(Cl)cc2)cc1 [Example 134] |  |
|  | 45 | 64.5 | N=C(N)Nc1ccc(C(=O)Sc2c(Cl)cccc2Cl)cc1 [Example 136] |  |
|  |  | 35.5 | N=C(N)Nc1ccc(C(=O)Sc2ccc(Cl)c(Cl)c2)cc1 [Example 137] |  |
|  | 1.6 | 83.1 | N=C(N)Nc1ccc(C(=O)Sc2ccccc2Br)cc1 [Example 138] |  |
|  |  | 23.2 | N=C(N)Nc1ccc(C(=O)Sc2ccc(C(=O)O)cc2)cc1 [Example 139] |  |
|  |  | 47.8 | N=C(N)Nc1ccc(C(=O)Sc2ccc(CC(=O)O)cc2)cc1 [Example 140] |  |
|  | 2.6 | 96.3 | COC(=O)c1ccccc1SC(=O)c1ccc(NC(=N)N)cc1 [Example 141] |  |
|  |  | 69.1 | CCOC(=O)c1ccc(SC(=O)c2ccc(NC(=N)N)cc2)cc1 [Example 142] |  |
|  |  | 75.5 | CCOC(=O)Cc1ccc(SC(=O)c2ccc(NC(=N)N)cc2)cc1 [Example 144] |  |
|  | 18 | 64.2 | N=C(N)Nc1ccc(C(=O)Sc2ccc([N+](=O)[O-])cc2)cc1 [Example 145] |  |
|  | 11 | 73.1 | CCN(CC)S(=O)(=O)c1ccc(SC(=O)c2ccc(NC(=N)N)cc2)cc1 [Example 146] |  |
| 20 |  |  | N=C(N)Nc1ccc(C(=O)Oc2cccc(C(=O)O)c2Cl)cc1 [Example 147, P-guanidinobenzoic acid 3-carboxy-2-chlorophenylester hydrobromide] |  |
|  |  |  | N=C(N)Nc1ccc(C(=O)Oc2cc(C(=O)O)cc(C(=O)O)c2)cc1 [Example 148] | inhibition at 100 µM ([2]; Y represents an oxygen atom): 25% |
| 60 |  |  | N=C(N)Nc1ccc(C(=O)Oc2cc(Cl)ccc2C(=O)O)cc1 [Example 149] |  |
| 4.5 |  |  | N=C(N)Nc1ccc(C(=O)Oc2cc(Cl)cc(CO)c2)cc1 [Example 150, P-guanidinobenzoic acid 3-chloro-5-hydroxymethylphenylester acetate] |  |
| 1.4 |  |  | N=C(N)Nc1ccc(C(=O)Oc2cc(Cl)cc(COc3ccc(S(=O)(=O)N4CCOCC4)cc3)c2)cc1 [Example 151, P-guanidinobenzoic acid 3-chloro-5-(4-morpholinosulfonyl)phenoxymethylphenylester acetate] |  |
| 7 |  |  | COc1cc(COc2ccc(S(=O)(=O)N3CCOCC3)cc2)cc(OC(=O)c2ccc(NC(=N)N)cc2)c1 [Example 152, p-guanidinobenzoic acid 3-methoxy-5-(4-morpholinosulfonyl)phenoxymethylphenylester acetate] |  |
|  |  |  | N=C(N)Nc1ccc(C(=O)Oc2ccccc2)cc1 [hydrogen, reference compound] | inhibition at 50 µg/mL ([2]; at 50 μg/ml (footnote 2), Y represents an oxygen atom, read-out: Inhibitory Effect on Elastase, Inhibition %): 54.6%; LD50 [1]: 50 to 150 mg/kg |

| SMILES | IC50 [2, 3] [µM] | IC50 [2, 4] [µM] | inhibition at 50 µg/mL [2, 5] [%] | other results |
| --- | --- | --- | --- | --- |
| N=C(N)Nc1ccc(C(=O)Oc2cc(Cl)ccc2Cl)cc1 [Example 37] | 1.1 |  |  | inhibition at 100 µM ([2]; Y represents an oxygen atom): 85.8%; LD50 [1]: 50 to 150 mg/kg |
| CC(=O)O.CCS(=O)(=O)Oc1cc(Cl)cc(OC(=O)c2ccc(NC(=N)N)cc2)c1 [Example 75, p-guanidinobenzoic acid 3-chloro-5-ethanesulfonyloxyphenyl ester acetate] | 1.1 |  |  | LD50 [1]: 50 to 150 mg/kg |
| CCN(CC)S(=O)(=O)c1ccc(OC(=O)c2ccc(NC(=N)N)cc2)cc1Cl [Example 94] | 22 |  |  | LD50 [1]: 50 to 150 mg/kg |
| CS(=O)(=O)O.N=C(N)Nc1ccc(C(=O)Oc2cc(O)cc(Cl)c2)cc1 [Example 112, p-guanidinobenzoic acid 3-chloro-5-hydroxyphenyl ester methanesulfonate] | 8.3 |  |  | LD50 [1]: 50 to 150 mg/kg |
| N=C(N)Nc1ccc(C(=O)Sc2ccccc2)cc1 [Example 124] |  | 2.1 | 94 | LD50 [1]: 50 to 150 mg/kg |
| N=C(N)Nc1ccc(C(=O)Sc2cc(Cl)ccc2Cl)cc1 [Example 135, p-guanidinobenzoic acid 2,5-dichlorothiophenyl ester methanesulfonate] |  | 0.1 | 92.1 | LD50 [1]: 50 to 150 mg/kg |
